Reference: patent US20090137572A1, “2-substituted-4-heteroaryl-pyrimidines useful for the treatment of proliferative disorders” (priority 2004, published 2009)

Tests used:
Type in all cases: biochemical
[1] = target: CDK1-cyclin B (Homo sapiens, UniProt P06493); assay: Kinase assay (radioactive phosphate incorporation), CDK1-cyclin B; conditions: read-out: Kinase Inhibition pIC50 CDK1-cyclin B (converted)
Protocol: (§1) Kinase assays. The compounds of the invention above were investigated for their ability to inhibit the enzymatic activity of various protein kinases (Table 2). This was achieved by measurement of incorporation of radioactive phosphate from ATP into appropriate polypeptide substrates. Recombinant protein kinases and kinase complexes were produced or obtained commercially. Assays were performed using 96-well plates and appropriate assay buffers (typically 25 mM β-glycerophosphate, 20 mM MOPS, 5 mM EGTA, 1 mM DTT, 1 mM […], pH 7.4), into which were added 2-4 μg of active enzyme with appropriate substrates. The reactions were initiated by addition of Mg/ATP mix (15 mM MgCl2+100 μM ATP with 30-50 kBq per well of [γ-^32P]-ATP) and mixtures incubated as required at 30° C. Reactions were stopped on ice, followed by filtration through p81 filterplates or GF/C filterplates (Whatman Polyfiltronics, Kent, UK). After washing 3 times with 75 mM aq orthophosphoric acid, plates were dried, scintillant added and incorporated radioactivity measured in a scintillation counter (TopCount, Packard Instruments, Pangbourne, Berks, UK). Compounds for kinase assay were made up as 10 mM stocks in DMSO and diluted into 10% DMSO in assay buffer.

[2] = target: CDK2-cyclin A (Homo sapiens, UniProt P24941); assay: Kinase assay (radioactive phosphate incorporation), CDK2-cyclin A; conditions: read-out: Kinase Inhibition pIC50 CDK2-cyclin A (converted)
Protocol: as §1

[3] = target: CDK2-cycline E (Homo sapiens, UniProt P24941); assay: Kinase assay (radioactive phosphate incorporation), CDK2-cyclin E; conditions: read-out: Kinase Inhibition pIC50 CDK2-cycline E (converted)
How it was run: (§2)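 Radiometric filter-binding format: recombinant kinase + substrate, pH 7.4 MOPS buffer with EGTA, DTT, vanadate; 100 μM ATP/[γ-32P]-ATP, 15 mM MgCl2; 30° C; stopped on ice, P81 or GF/C filtration, scintillation read.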

[4] = target: CDK4-cyclin D1 (Homo sapiens, UniProt P11802); assay: Kinase assay (radioactive phosphate incorporation), CDK4-cyclin D1; conditions: read-out: Kinase Inhibition pIC50 CDK4-cyclin D1 (converted)
Protocol: as §1

[5] = target: CDK7/cyclin H (Homo sapiens, UniProt P50613); assay: CDK 7 assay (CTD peptide substrate); conditions: read-out: Kinase Inhibition pIC50 CDK7-cyclin H (converted)
How it was run: (§3)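 Test compounds were incubated with recombinant human kinase/cyclin complex and CTD peptide substrate for 45 min at 30° C (pH 7.2, 100 μM ATP spiked with 32PγATP, 15 mM MgCl2). Reactions were stopped on ice, avidin was added, and phosphorylated peptide was captured on P81 filters and counted by scintillation.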

[6] = target: CDK9/cyclin T1 (Homo sapiens, UniProt P50750); assay: CDK 9 assay (CTD peptide substrate); conditions: read-out: Kinase Inhibition pIC50 CDK9-cyclin T1 (converted)
How it was run: as §3

[7] = target: T1, Flt3 (FMS-like tyrosine kinase-3) (Homo sapiens, UniProt P36888); assay: Kinase assay (radioactive phosphate incorporation), Flt3; conditions: pIC50 is -log(IC50, M), read-out: Kinase Inhibition pIC50 Flt3 (converted)
T1 sequence (P36888 27-993): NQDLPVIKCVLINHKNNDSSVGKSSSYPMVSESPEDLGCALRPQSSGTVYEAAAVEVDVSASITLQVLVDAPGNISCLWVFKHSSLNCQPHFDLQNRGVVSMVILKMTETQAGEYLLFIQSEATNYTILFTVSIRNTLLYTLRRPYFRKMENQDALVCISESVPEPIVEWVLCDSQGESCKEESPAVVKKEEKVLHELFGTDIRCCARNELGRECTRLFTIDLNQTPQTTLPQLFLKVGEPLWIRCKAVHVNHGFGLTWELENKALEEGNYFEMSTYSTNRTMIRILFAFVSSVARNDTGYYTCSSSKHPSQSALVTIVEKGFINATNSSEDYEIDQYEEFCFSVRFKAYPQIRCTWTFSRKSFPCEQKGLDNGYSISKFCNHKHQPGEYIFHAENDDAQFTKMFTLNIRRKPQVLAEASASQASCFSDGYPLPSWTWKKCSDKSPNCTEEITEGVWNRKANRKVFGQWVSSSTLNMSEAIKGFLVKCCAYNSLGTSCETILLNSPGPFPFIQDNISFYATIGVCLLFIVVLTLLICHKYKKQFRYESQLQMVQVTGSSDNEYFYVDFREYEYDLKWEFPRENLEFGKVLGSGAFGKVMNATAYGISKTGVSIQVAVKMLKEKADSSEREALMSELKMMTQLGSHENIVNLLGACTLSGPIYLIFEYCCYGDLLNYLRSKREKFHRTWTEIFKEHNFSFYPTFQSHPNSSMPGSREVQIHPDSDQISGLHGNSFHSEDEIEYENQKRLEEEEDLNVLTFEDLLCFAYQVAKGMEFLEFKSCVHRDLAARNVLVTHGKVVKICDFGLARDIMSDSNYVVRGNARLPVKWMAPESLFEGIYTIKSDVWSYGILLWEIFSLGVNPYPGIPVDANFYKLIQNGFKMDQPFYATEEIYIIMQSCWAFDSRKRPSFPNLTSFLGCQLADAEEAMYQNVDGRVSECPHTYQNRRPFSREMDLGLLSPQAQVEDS
How it was run: as §2

[8] = target: T2, Aurora A kinase (Homo sapiens, UniProt O14965); assay: Aurora-A (human) kinase assay (Kemptide substrate); conditions: pIC50 is -log(IC50, M); 15 μM ATP; read-out: Kinase Inhibition pIC50 Aurora A kinase (converted)
T2 construct: purchased
T2 sequence (O14965 1-403): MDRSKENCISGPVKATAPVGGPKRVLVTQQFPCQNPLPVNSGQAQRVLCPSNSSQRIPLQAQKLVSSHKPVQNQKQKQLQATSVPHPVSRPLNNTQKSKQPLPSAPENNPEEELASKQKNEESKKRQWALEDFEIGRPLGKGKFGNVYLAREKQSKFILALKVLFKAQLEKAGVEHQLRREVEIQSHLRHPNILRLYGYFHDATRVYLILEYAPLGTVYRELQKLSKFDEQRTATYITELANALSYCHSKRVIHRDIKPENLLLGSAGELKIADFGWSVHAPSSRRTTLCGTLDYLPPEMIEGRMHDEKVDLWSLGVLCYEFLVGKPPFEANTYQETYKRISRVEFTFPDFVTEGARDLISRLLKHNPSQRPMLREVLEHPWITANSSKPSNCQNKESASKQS
How it was run: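 Radiometric filter-binding assay: commercial aurora-A kinase (5-10 ng) with 200 μM Kemptide in MOPS/EDTA pH 7.0, started with 10 mM Mg acetate and 15 μM ATP plus [γ-33P]-ATP. Incubated 40 min at room temperature, stopped with phosphoric acid, incorporated 33P counted by scintillation.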

CDK9/cyclin T1, sequence (P50750 whole entry): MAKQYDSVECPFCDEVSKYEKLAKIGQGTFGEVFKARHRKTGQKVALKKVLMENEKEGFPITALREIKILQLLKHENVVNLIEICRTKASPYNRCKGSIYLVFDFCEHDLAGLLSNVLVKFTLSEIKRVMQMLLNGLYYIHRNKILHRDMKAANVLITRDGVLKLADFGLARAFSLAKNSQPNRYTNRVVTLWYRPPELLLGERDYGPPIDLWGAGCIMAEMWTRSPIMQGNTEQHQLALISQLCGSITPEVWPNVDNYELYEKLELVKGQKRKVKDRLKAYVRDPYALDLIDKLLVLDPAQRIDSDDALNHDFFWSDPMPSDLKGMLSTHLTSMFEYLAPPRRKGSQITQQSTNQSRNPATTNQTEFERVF
CDK9/cyclin T1, sequence (O60563 whole entry partner): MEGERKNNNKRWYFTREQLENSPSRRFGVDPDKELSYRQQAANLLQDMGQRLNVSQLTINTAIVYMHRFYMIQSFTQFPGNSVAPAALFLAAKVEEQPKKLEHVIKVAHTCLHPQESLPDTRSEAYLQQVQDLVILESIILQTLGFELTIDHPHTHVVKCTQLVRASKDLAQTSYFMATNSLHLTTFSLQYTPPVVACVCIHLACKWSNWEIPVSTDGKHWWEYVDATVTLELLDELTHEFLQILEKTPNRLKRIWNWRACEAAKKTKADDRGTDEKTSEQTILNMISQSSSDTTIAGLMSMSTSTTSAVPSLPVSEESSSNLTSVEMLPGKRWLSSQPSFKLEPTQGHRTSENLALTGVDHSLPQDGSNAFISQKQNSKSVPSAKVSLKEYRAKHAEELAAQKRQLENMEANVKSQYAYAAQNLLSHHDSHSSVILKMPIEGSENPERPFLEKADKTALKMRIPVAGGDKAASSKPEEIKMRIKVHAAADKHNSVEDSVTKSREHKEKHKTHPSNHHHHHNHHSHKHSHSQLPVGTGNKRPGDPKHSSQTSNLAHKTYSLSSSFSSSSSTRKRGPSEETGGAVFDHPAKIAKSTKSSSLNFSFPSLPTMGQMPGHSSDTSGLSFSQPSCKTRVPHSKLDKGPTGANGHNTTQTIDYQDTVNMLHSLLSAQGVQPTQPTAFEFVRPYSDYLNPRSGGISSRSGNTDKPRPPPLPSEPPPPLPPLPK
CDK4-cyclin D1, sequence (P11802 whole entry): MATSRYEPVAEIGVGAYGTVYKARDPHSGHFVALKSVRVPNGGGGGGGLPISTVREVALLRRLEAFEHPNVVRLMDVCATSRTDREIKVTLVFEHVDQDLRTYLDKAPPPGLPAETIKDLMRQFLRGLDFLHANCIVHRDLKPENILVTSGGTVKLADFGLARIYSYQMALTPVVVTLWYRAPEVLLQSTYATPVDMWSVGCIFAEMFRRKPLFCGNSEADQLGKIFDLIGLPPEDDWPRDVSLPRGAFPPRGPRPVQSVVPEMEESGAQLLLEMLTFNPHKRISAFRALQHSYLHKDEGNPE
CDK4-cyclin D1, sequence (P24385 whole entry partner): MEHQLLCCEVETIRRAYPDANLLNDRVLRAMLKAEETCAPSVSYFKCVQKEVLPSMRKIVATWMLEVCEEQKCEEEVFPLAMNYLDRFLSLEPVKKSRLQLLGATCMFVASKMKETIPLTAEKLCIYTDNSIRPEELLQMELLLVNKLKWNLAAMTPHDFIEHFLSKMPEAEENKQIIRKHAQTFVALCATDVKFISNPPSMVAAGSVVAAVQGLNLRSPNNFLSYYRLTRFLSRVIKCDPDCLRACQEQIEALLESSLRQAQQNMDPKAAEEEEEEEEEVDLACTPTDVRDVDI
CDK1-cyclin B, sequence (P06493 whole entry): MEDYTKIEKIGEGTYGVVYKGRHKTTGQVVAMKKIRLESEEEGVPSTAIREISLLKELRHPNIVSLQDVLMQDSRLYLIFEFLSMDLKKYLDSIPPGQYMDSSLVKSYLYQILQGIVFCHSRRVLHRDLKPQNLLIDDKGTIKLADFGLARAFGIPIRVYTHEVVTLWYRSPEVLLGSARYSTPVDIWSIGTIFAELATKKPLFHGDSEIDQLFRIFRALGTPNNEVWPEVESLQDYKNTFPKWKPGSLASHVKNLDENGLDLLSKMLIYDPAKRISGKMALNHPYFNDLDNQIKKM
CDK1-cyclin B, sequence (P14635 whole entry partner): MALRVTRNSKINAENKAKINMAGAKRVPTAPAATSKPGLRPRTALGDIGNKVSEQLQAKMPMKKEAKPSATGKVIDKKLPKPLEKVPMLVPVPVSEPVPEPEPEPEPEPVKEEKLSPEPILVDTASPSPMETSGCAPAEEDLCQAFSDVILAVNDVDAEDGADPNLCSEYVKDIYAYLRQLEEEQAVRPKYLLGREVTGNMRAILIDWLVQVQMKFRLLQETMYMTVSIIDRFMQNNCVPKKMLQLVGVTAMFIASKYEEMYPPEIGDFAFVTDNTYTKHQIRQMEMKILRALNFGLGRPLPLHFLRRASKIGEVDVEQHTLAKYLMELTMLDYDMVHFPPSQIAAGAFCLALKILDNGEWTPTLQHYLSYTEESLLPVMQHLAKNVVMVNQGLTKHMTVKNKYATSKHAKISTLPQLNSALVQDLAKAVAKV
CDK7/cyclin H, sequence (P50613 whole entry): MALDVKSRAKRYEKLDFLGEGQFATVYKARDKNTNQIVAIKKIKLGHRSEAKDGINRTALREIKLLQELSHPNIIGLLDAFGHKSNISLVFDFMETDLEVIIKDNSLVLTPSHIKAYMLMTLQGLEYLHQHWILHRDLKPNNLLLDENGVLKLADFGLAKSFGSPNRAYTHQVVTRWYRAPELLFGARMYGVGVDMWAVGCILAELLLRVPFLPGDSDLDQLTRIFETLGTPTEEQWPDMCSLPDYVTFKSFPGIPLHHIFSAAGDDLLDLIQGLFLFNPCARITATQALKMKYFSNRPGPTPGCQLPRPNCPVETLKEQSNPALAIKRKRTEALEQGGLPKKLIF
CDK7/cyclin H, sequence (P51946 whole entry partner): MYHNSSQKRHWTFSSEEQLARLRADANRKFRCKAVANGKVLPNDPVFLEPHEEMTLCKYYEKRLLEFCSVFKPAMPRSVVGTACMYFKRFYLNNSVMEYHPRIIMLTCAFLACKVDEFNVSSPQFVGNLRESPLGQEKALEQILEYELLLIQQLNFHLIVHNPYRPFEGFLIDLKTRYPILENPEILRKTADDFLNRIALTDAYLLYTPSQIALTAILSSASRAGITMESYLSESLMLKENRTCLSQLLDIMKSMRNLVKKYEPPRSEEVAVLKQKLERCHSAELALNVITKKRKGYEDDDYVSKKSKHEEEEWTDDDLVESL

Structure (SMILES) | IC50 [1] [nM] | IC50 [2] [nM] | IC50 [3] [nM] | IC50 [4] [nM] | IC50 [5] [nM] | IC50 [6] [nM] | IC50 [7] [nM] | IC50 [8] [nM]
CCNc1nc(C)c(-c2ccnc(Nc3ccc(N4CCN(C(C)=O)CC4)cc3)n2)s1 [Compound 58, 1-(4-{4-[4-(2-Ethylamino-4-methyl-thiazol-5-yl)-pyrimidin-2-ylamino]-phenyl}-piperazin-1-yl)-ethanone] | 5010 | 1000 | 631 | 251 |  |  |  | 
CCNc1nc(C)c(-c2ccnc(Nc3cccc(CC(=O)OCCOC)c3)n2)s1 [Compound 45, {3-[4-(2-Ethylamino-4-methyl-thiazol-5-yl)-pyrimidin-2-ylamino]-phenyl}-acetic acid 2-methoxy-ethyl ester] | 5010 | 3160 | 2510 | 3160 | 3980 | 398 | 100 | 15.8
Cc1nc(N)sc1-c1ccnc(Nc2ccc(S(=O)(=O)NCc3ccccc3)cc2)n1 [Compound 73, 4-[4-(2-Amino-4-methyl-thiazol-5-yl)-pyrimidin-2-ylamino]-N-benzyl-benzenesulfonamide] | 100 | 39.8 | 12.6 |  | 1000 | 158 |  | 316
CCNS(=O)(=O)c1cccc(Nc2nccc(-c3sc(NC)nc3C)n2)c1 [Compound 31, N-Ethyl-3-[4-(4-methyl-2-methylamino-thiazol-5-yl)-pyrimidin-2-ylamino]-benzenesulfonamide] | 501 | 1260 | 251 | 50.1 | 1000 | 20 | 63.1 | 63.1
Cc1nc(C)c(-c2ccnc(Nc3cccc(CNS(C)(=O)=O)c3)n2)s1 [Compound 49, N-{3-[4-(2,4-Dimethyl-thiazol-5-yl)-pyrimidin-2-ylamino]-benzyl}-methanesulfonamide] | 200 | 158 | 25.1 | 1000 |  | 316 | 200 | 5.01
CNc1nc(C)c(-c2ccnc(Nc3ccc(S(=O)(=O)NCc4ccccc4)cc3)n2)s1 [Compound 72, N-Benzyl-4-[4-(4-methyl-2-methylamino-thiazol-5-yl)-pyrimidin-2-ylamino]-benzenesulfonamide] | 794 | 1260 | 158 |  |  | 6310 |  | 2510
CCNc1nc(C)c(-c2ccnc(Nc3ccc(CNC(C)=O)cc3)n2)s1 [Compound 13, N-{4-[4-(2-Ethylamino-4-methyl-thiazol-5-yl)-pyrimidin-2-ylamino]-benzyl}-acetamide] | 631 | 126 |  | 63.1 | 200 | 25.1 | 31.6 | 15.8
CNc1nc(C)c(-c2ccnc(Nc3cccc(N4CCNCC4)c3)n2)s1 [Compound 7, [4-(4-Methyl-2-methylamino-thiazol-5-yl)-pyrimidin-2-yl]-(3-piperazin-1-yl-phenyl)-amine] | 3160 | 2510 | 398 | 1000 | 631 | 200 | 12.6 | 200
CNc1nc(C)c(-c2ccnc(Nc3cc(CO)cc(CO)c3)n2)s1 [Compound 48, {3-Hydroxymethyl-5-[4-(4-methyl-2-methylamino-thiazol-5-yl)-pyrimidin-2-ylamino]-phenyl}-methanol] | 631 | 631 | 251 | 631 |  |  | 63.1 | 50.1
CCOC(=O)Cc1cccc(NS(=O)(=O)c2ccc(Nc3nccc(-c4sc(NC)nc4C)n3)cc2)c1 [Compound 62, (3-{4-[4-(4-Methyl-2-methylamino-thiazol-5-yl)-pyrimidin-2-ylamino]-benzenesulfonylamino}-phenyl)-acetic acid ethyl ester] |  | 3160 | 79.4 |  |  | 6310 |  | 
Cc1nc(C)c(-c2ccnc(Nc3ccc(S(=O)(=O)NCc4ccccc4)cc3)n2)s1 [Compound 74, N-Benzyl-4-[4-(2,4-dimethyl-thiazol-5-yl)-pyrimidin-2-ylamino]-benzenesulfonamide] |  | 2000 | 398 |  |  |  |  | 126
CCNS(=O)(=O)c1ccc(Nc2nccc(-c3sc(C)nc3C)n2)cc1 [Compound 66, 4-[4-(2,4-Dimethyl-thiazol-5-yl)-pyrimidin-2-ylamino]-N-ethyl-benzenesulfonamide] |  | 50.1 | 63.1 |  |  |  |  | 316
CNc1nc(C)c(-c2ccnc(Nc3cccc(CC(=O)OCCOC)c3)n2)s1 [Compound 44, {3-[4-(4-Methyl-2-methylamino-thiazol-5-yl)-pyrimidin-2-ylamino]-phenyl}-acetic acid 2-methoxy-ethyl ester] | 2000 | 2000 |  | 2000 | 3160 | 251 | 63.1 | 
CCNc1nc(C)c(-c2ccnc(Nc3ccc(S(=O)(=O)NCc4ccccc4)cc3)n2)s1 [Compound 71, N-Benzyl-4-[4-(2-ethylamino-4-methyl-thiazol-5-yl)-pyrimidin-2-ylamino]-benzenesulfonamide] |  | 3160 | 631 | 7940 |  | 398 |  | 
